Experimental data from ChEMBL document CHEMBL1201862, “PubChem BioAssay data set” (2004).
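Five compound concentrations were applied to cells in 96-well plates for 48 hours; endpoints were derived by simple linear interpolation of the resulting dose-response curve. GI50 = concentration required for 50% inhibition of growth.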 Active and inactive are the calls of the source. Rule as the data show it: active = GI50 up to about 1.1 µM and inactive = higher.

Key:
Assay in all cases: NCI anticancer screen, dose series, 48 h
SNB-19 = test system: SNB-19
HOP-18 = test system: HOP-18
HCC 2998 = test system: HCC 2998
SNB-78 = test system: SNB-78
K562 = test system: K562
IGROV-1 = test system: IGROV-1
MOLT-4 = test system: MOLT-4
RXF 631 = test system: RXF 631
OVCAR-3 = test system: OVCAR-3
DLD-1 = test system: DLD-1
CCRF-CEM = test system: CCRF-CEM
NCI-H23 = test system: NCI-H23
SR = test system: SR
KM-20L2 = test system: KM-20L2
UO-31 = test system: UO-31
DMS-114 = test system: DMS-114
COLO 205 = test system: COLO 205
SF-539 = test system: SF-539
SN12C = test system: SN12C
NCI-H522 = test system: NCI-H522
HT-29 = test system: HT-29
SK-MEL-5 = test system: SK-MEL-5
SK-MEL-28 = test system: SK-MEL-28
HL-60 = test system: HL-60
LXFL 529 = test system: LXFL 529
RPMI-8226 = test system: RPMI-8226
NCI-H460 = test system: NCI-H460
SW-620 = test system: SW-620
HCT-15 = test system: HCT-15
HOP-62 = test system: HOP-62
ACHN = test system: ACHN
UACC-62 = test system: UACC-62
NCI-H226 = test system: NCI-H226
XF498 = test system: XF498
786-0 = test system: 786-0
KM12 = test system: KM12
TK-10 = test system: TK-10
Malme-3M = test system: Malme-3M
A549 = test system: A549
HOP-92 = test system: HOP-92
OVCAR-5 = test system: OVCAR-5
SF-268 = test system: SF-268
U-251 = test system: U-251
SF-295 = test system: SF-295
DMS-273 = test system: DMS-273
RXF 393 = test system: RXF 393
A498 = test system: A498
EKVX = test system: EKVX
HCT-116 = test system: HCT-116
SK-OV-3 = test system: SK-OV-3
OVCAR-4 = test system: OVCAR-4
LOX IMVI = test system: LOX IMVI
SK-MEL-2 = test system: SK-MEL-2
CAKI-1 = test system: CAKI-1
UACC-257 = test system: UACC-257
SNB-75 = test system: SNB-75
OVCAR-8 = test system: OVCAR-8
M19-MEL = test system: M19-MEL
M14 = test system: M14

CC#N.O[C@@H]1CCCC[C@@H]1O.O[C@@H]1CCCC[C@@H]1O.[TeH2] was tested, and the GI50 (SNB-19) was 33.1 µM (inactive), the GI50 (HOP-18) was 27.5 µM (inactive) and the GI50 (HCC 2998) was > 100 µM (inactive). The GI50 (SNB-78) was > 100 µM (inactive), the GI50 (K562) was 18.7 µM (inactive) and the GI50 (IGROV-1) was 26.9 µM (inactive). For the same molecule, the GI50 (MOLT-4) was 13.8 µM (inactive), the GI50 (RXF 631) was 18.7 µM (inactive) and the GI50 (OVCAR-3) was 31.8 µM (inactive). The GI50 (DLD-1) was 22.7 µM (inactive), the GI50 (CCRF-CEM) was 11.6 µM (inactive) and the GI50 (NCI-H23) was 21.2 µM (inactive). The GI50 (SR) was 21.1 µM (inactive), the GI50 (KM-20L2) was 65.5 µM (inactive) and the GI50 (UO-31) was 57.1 µM (inactive). The GI50 (DMS-114) was 24.4 µM (inactive), the GI50 (COLO 205) was 84.3 µM (inactive) and the GI50 (SF-539) was > 100 µM (inactive). For the same molecule, the GI50 (SN12C) was 24.2 µM (inactive), the GI50 (NCI-H522) was 37.3 µM (inactive) and the GI50 (HT-29) was 33.4 µM (inactive). For the same molecule, the GI50 (SK-MEL-5) was 40.6 µM (inactive), the GI50 (SK-MEL-28) was 72.3 µM (inactive) and the GI50 (HL-60) was 15.4 µM (inactive). The GI50 (LXFL 529) was 63.7 µM (inactive), the GI50 (RPMI-8226) was 37.2 µM (inactive) and the GI50 (NCI-H460) was 3.72 µM (inactive). The GI50 (SW-620) was 18.6 µM (inactive), the GI50 (HCT-15) was 18.8 µM and the GI50 (HOP-62) was 41.7 µM (inactive). The GI50 (ACHN) was 33.2 µM (inactive), the GI50 (UACC-62) was > 100 µM (inactive) and the GI50 (NCI-H226) was 40.6 µM (inactive). For the same molecule, the GI50 (XF498) was > 100 µM (inactive), the GI50 (786-0) was 34.1 µM (inactive) and the GI50 (KM12) was 50.8 µM (inactive). For the same molecule, the GI50 (TK-10) was > 100 µM (inactive), the GI50 (Malme-3M) was > 100 µM (inactive) and the GI50 (A549) was 45.8 µM (inactive). The GI50 (HOP-92) was 26.1 µM (inactive), the GI50 (OVCAR-5) was 16.3 µM (inactive) and the GI50 (SF-268) was 69.2 µM (inactive). The GI50 (U-251) was 12.9 µM (inactive), the GI50 (SF-295) was 17.3 µM (inactive) and the GI50 (DMS-273) was 19.6 µM (inactive). For the same molecule, the GI50 (RXF 393) was 72.3 µM (inactive), the GI50 (A498) was 30.4 µM (inactive) and the GI50 (EKVX) was > 100 µM (inactive). The GI50 (HCT-116) was 15.4 µM (inactive), the GI50 (SK-OV-3) was 77.8 µM (inactive) and the GI50 (OVCAR-4) was 31.8 µM (inactive). The GI50 (LOX IMVI) was 10.6 µM (inactive), the GI50 (SK-MEL-2) was 74.3 µM (inactive) and the GI50 (CAKI-1) was > 100 µM (inactive). For the same molecule, the GI50 (UACC-257) was 54.3 µM (inactive), the GI50 (SNB-75) was > 100 µM (inactive) and the GI50 (OVCAR-8) was 21.8 µM (inactive). The GI50 (M19-MEL) was 25.1 µM (inactive) and the GI50 (M14) was > 100 µM (inactive).
